Assay results published in the NIST ThermoML archive (doi:10.1021/acs.jced.5b00784).
± gives the expanded uncertainty stated by the source.

How the values were obtained:
[1] = Liquid, isochoric method
[2] = xn = mol fraction of the nth substance listed; conditions: Liquid, Vibrating tube method, x2 = 0.377

FC(C(F)(F)F)C(F)(F)F [1,1,1,2,3,3,3-heptafluoropropane]
[1]
Conditions	mass density [kg/m3]
268.92 K, 1786 kPa	1509.3 ± 4.5
271.83 K, 3840 kPa	1508.5 ± 4.5
274.3 K, 5598 kPa	1508.1 ± 4.5
277.7 K, 8059 kPa	1507.7 ± 4.5
279.51 K, 839 kPa	1466.6 ± 4.4
280.8 K, 10284 kPa	1507.3 ± 4.5
281.32 K, 1993 kPa	1465.2 ± 4.4
283.42 K, 3331 kPa	1464.8 ± 4.4
283.61 K, 12288 kPa	1507 ± 4.5
285.37 K, 4577 kPa	1464.6 ± 4.4
286.43 K, 1142 kPa	1441.9 ± 4.3
286.67 K, 1203 kPa	1440.9 ± 4.3
286.7 K, 14495 kPa	1506.7 ± 4.5
287.36 K, 5848 kPa	1464.3 ± 4.4
288.43 K, 2193 kPa	1440 ± 4.3
289.14 K, 2747 kPa	1440.7 ± 4.3
289.31 K, 16361 kPa	1506.4 ± 4.5
289.41 K, 7162 kPa	1464.1 ± 4.4
290.44 K, 3367 kPa	1439.5 ± 4.3
291.46 K, 8474 kPa	1463 ± 4
292 K, 4466 kPa	1440.2 ± 4.3
292.45 K, 4875 kPa	1439.1 ± 4.3
293.4 K, 9717 kPa	1463.7 ± 4.4
294.61 K, 5846 kPa	1438.9 ± 4.3
294.98 K, 6251 kPa	1439.8 ± 4.3
295.29 K, 10924 kPa	1463.5 ± 4.4
296.72 K, 7101 kPa	1438 ± 4
297.18 K, 12136 kPa	1463.3 ± 4.4
297.85 K, 7978 kPa	1439.5 ± 4.3
298.7 K, 8273 kPa	1438.5 ± 4.3
299.38 K, 13527 kPa	1463.1 ± 4.4
300.87 K, 9562 kPa	1438.2 ± 4.3
300.89 K, 9788 kPa	1439.2 ± 4.3
301.4 K, 14839 kPa	1462.9 ± 4.4
302.74 K, 10686 kPa	1438.1 ± 4.3
302.94 K, 15829 kPa	1462.8 ± 4.4
303.82 K, 11544 kPa	1438.9 ± 4.3
304.8 K, 11916 kPa	1437.9 ± 4.3
306.88 K, 13381 kPa	1438.6 ± 4.3
306.95 K, 13205 kPa	1437.7 ± 4.3
309 K, 14427 kPa	1437.5 ± 4.3
310.05 K, 15281 kPa	1438.3 ± 4.3
311.05 K, 15654 kPa	1437.3 ± 4.3
312.85 K, 16727 kPa	1437.1 ± 4.3
312.95 K, 17014 kPa	1438 ± 4.3

COC(F)(F)C(F)(C(F)(F)F)C(F)(F)F [methyl nonafluoroisobutyl ether] + COC(F)(F)C(F)(F)C(F)(F)C(F)(F)F
[2]
Conditions	mass density [kg/m3]
275.02 K, 1984 kPa	1579.6 ± 4.7
277.09 K, 3723 kPa	1579.2 ± 4.7
279.26 K, 5543 kPa	1578.7 ± 4.8
279.43 K, 273 kPa	1564.5 ± 4.7
279.75 K, 524 kPa	1564.4 ± 4.7
279.75 K, 527 kPa	1564.4 ± 4.7
280.37 K, 972 kPa	1563.7 ± 4.7
280.46 K, 1101 kPa	1564.3 ± 4.7
280.94 K, 1442 kPa	1564.2 ± 4.7
281.34 K, 7289 kPa	1578.3 ± 4.8
281.55 K, 1942 kPa	1563.5 ± 4.7
281.92 K, 2278 kPa	1564 ± 4.7
281.94 K, 2249 kPa	1564 ± 4.7
282.38 K, 2648 kPa	1563.9 ± 4.7
283.21 K, 3315 kPa	1563.7 ± 4.7
283.5 K, 9101 kPa	1577.9 ± 4.8
283.65 K, 3673 kPa	1563.6 ± 4.7
284.04 K, 3949 kPa	1563.6 ± 4.7
284.44 K, 4290 kPa	1563.5 ± 4.7
285.1 K, 4838 kPa	1563.3 ± 4.7
285.42 K, 5083 kPa	1563.3 ± 4.7
285.49 K, 10769 kPa	1577.5 ± 4.8
285.94 K, 5471 kPa	1563.2 ± 4.7
286.26 K, 5744 kPa	1563.1 ± 4.7
286.26 K, 5757 kPa	1563.1 ± 4.7
286.61 K, 5994 kPa	1562.5 ± 4.7
286.95 K, 6330 kPa	1562.9 ± 4.7
287.26 K, 6535 kPa	1562.3 ± 4.7
287.54 K, 6765 kPa	1562.9 ± 4.7
287.54 K, 6789 kPa	1562.9 ± 4.7
287.59 K, 12510 kPa	1577.1 ± 4.8
287.68 K, 6872 kPa	1562.8 ± 4.7
288.04 K, 7178 kPa	1562.8 ± 4.7
288.9 K, 7893 kPa	1562.5 ± 4.7
289.56 K, 14156 kPa	1576.7 ± 4.8
289.6 K, 8425 kPa	1562.5 ± 4.7
289.6 K, 8448 kPa	1562.5 ± 4.7
289.6 K, 8462 kPa	1562.2 ± 4.7
289.72 K, 8502 kPa	1562.4 ± 4.7
291.62 K, 15869 kPa	1576.2 ± 4.8
291.67 K, 10052 kPa	1562 ± 4.7
291.67 K, 10070 kPa	1562 ± 4.7
291.67 K, 10101 kPa	1562 ± 4.7
292.61 K, 10815 kPa	1561.9 ± 4.7
292.7 K, 10872 kPa	1561.2 ± 4.7
293.44 K, 11481 kPa	1561.7 ± 4.7
293.52 K, 17446 kPa	1575.9 ± 4.8
294.31 K, 12183 kPa	1561.5 ± 4.7
295.32 K, 12982 kPa	1561.3 ± 4.7
295.59 K, 19153 kPa	1575.4 ± 4.8
296.29 K, 13751 kPa	1561.1 ± 4.7
298.57 K, 15560 kPa	1560.7 ± 4.7
299.64 K, 16411 kPa	1560.5 ± 4.7
300.65 K, 17215 kPa	1560.3 ± 4.7
301.34 K, 17761 kPa	1560.1 ± 4.7
302.6 K, 18751 kPa	1559.9 ± 4.7
302.6 K, 18786 kPa	1559.9 ± 4.7
